By Kd is commonly meant the constant that tells how readily two partners part at equilibrium. What is called pKd is the Kd on a negative log10 scale, so that one unit is a factor of ten.

pKd: −log10 of the molar value. The source made the active and inactive calls.

The target of one experiment is T1, Rab-like protein 3 (Homo sapiens, UniProt Q5HYI8).
T1 sequence (Q5HYI8 whole entry): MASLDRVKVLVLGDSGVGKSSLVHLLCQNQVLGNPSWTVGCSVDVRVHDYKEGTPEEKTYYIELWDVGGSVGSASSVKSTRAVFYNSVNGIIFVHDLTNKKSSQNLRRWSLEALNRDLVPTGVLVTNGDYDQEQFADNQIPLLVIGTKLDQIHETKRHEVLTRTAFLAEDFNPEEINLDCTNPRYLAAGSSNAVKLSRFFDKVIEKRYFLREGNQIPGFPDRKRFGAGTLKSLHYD

For experiment [1], the target named is T2, Serine/threonine-protein kinase Nek3 (Homo sapiens, UniProt P51956).
T2 sequence (P51956 whole entry): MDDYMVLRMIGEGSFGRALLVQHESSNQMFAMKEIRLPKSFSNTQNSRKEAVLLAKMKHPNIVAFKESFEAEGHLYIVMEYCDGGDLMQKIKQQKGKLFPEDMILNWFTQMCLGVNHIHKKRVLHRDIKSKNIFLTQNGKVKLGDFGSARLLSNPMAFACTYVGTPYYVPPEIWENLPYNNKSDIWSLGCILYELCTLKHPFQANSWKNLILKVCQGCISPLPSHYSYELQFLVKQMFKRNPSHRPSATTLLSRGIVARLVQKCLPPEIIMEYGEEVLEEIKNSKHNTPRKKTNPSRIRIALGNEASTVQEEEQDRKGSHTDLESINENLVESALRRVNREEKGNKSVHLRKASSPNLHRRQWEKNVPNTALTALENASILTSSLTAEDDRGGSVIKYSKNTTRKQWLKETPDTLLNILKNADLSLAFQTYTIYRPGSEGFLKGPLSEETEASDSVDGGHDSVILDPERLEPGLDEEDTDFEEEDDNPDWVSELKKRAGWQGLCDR

Experiment [2] has as its target U5 small nuclear ribonucleoprotein 200 kDa helicase (Homo sapiens, UniProt O75643).
The target of experiment [3] is RAC-gamma serine/threonine-protein kinase (Homo sapiens, UniProt Q9Y243).
For experiment [4], the target named is Insulin-like growth factor 1 receptor (Homo sapiens, UniProt P08069).
For experiment [5], the target named is Mitogen-activated protein kinase kinase kinase kinase 1 (Homo sapiens, UniProt Q92918).
Experiment [6] addresses T3, Breakpoint cluster region protein (Homo sapiens, UniProt P11274).
T3 sequence (P11274 whole entry): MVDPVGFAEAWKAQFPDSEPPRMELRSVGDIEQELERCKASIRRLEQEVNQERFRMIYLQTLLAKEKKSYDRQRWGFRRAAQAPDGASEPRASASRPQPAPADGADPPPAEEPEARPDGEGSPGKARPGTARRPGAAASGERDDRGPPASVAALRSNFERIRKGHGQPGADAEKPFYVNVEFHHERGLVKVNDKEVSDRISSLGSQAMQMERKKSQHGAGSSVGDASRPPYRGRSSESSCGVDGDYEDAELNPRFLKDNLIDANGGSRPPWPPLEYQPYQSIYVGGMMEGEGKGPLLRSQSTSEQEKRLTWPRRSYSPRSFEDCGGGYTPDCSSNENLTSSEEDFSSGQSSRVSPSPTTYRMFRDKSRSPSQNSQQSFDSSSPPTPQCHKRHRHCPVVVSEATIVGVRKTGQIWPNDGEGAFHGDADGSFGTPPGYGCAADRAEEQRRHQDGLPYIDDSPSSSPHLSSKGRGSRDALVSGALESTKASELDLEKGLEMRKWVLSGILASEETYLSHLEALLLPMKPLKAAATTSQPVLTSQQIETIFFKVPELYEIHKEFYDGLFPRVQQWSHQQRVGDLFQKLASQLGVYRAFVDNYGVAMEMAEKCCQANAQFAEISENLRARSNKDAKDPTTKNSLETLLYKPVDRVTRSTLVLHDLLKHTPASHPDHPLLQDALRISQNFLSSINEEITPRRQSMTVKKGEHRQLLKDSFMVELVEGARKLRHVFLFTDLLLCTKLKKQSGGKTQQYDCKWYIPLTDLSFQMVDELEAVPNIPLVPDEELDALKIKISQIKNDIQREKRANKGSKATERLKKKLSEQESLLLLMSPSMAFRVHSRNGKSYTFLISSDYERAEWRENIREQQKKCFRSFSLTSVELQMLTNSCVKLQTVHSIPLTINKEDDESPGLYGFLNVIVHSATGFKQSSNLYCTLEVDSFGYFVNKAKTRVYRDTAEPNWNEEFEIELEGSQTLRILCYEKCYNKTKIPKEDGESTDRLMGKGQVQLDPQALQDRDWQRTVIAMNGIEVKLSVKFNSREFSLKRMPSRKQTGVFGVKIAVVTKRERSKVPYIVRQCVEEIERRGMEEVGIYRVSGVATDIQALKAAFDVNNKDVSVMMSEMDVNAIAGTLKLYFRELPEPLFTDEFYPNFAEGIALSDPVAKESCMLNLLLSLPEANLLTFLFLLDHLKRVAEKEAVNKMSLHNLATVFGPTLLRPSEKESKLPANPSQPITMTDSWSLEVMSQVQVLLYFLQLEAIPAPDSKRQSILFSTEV

Experiment [7] addresses T4, Serine/threonine-protein kinase NLK (Homo sapiens, UniProt Q9UBE8).
T4 sequence (Q9UBE8 whole entry): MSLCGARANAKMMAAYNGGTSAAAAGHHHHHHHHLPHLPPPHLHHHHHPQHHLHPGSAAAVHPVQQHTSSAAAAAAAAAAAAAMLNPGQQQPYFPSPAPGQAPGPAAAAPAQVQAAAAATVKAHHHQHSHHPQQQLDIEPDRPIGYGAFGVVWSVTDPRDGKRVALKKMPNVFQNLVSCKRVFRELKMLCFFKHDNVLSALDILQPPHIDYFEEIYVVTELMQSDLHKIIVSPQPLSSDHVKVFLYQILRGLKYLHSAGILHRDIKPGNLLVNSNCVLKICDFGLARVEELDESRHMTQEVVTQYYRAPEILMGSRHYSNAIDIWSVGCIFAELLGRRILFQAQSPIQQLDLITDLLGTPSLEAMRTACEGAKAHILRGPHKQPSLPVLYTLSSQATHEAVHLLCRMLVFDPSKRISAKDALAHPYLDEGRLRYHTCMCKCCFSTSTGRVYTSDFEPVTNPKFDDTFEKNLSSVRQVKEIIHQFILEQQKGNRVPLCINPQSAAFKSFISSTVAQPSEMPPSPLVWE
Further: in the data inactive means no Kd found up to 30 µM.

Chain of U5 small nuclear ribonucleoprotein 200 kDa helicase (O75643 whole entry): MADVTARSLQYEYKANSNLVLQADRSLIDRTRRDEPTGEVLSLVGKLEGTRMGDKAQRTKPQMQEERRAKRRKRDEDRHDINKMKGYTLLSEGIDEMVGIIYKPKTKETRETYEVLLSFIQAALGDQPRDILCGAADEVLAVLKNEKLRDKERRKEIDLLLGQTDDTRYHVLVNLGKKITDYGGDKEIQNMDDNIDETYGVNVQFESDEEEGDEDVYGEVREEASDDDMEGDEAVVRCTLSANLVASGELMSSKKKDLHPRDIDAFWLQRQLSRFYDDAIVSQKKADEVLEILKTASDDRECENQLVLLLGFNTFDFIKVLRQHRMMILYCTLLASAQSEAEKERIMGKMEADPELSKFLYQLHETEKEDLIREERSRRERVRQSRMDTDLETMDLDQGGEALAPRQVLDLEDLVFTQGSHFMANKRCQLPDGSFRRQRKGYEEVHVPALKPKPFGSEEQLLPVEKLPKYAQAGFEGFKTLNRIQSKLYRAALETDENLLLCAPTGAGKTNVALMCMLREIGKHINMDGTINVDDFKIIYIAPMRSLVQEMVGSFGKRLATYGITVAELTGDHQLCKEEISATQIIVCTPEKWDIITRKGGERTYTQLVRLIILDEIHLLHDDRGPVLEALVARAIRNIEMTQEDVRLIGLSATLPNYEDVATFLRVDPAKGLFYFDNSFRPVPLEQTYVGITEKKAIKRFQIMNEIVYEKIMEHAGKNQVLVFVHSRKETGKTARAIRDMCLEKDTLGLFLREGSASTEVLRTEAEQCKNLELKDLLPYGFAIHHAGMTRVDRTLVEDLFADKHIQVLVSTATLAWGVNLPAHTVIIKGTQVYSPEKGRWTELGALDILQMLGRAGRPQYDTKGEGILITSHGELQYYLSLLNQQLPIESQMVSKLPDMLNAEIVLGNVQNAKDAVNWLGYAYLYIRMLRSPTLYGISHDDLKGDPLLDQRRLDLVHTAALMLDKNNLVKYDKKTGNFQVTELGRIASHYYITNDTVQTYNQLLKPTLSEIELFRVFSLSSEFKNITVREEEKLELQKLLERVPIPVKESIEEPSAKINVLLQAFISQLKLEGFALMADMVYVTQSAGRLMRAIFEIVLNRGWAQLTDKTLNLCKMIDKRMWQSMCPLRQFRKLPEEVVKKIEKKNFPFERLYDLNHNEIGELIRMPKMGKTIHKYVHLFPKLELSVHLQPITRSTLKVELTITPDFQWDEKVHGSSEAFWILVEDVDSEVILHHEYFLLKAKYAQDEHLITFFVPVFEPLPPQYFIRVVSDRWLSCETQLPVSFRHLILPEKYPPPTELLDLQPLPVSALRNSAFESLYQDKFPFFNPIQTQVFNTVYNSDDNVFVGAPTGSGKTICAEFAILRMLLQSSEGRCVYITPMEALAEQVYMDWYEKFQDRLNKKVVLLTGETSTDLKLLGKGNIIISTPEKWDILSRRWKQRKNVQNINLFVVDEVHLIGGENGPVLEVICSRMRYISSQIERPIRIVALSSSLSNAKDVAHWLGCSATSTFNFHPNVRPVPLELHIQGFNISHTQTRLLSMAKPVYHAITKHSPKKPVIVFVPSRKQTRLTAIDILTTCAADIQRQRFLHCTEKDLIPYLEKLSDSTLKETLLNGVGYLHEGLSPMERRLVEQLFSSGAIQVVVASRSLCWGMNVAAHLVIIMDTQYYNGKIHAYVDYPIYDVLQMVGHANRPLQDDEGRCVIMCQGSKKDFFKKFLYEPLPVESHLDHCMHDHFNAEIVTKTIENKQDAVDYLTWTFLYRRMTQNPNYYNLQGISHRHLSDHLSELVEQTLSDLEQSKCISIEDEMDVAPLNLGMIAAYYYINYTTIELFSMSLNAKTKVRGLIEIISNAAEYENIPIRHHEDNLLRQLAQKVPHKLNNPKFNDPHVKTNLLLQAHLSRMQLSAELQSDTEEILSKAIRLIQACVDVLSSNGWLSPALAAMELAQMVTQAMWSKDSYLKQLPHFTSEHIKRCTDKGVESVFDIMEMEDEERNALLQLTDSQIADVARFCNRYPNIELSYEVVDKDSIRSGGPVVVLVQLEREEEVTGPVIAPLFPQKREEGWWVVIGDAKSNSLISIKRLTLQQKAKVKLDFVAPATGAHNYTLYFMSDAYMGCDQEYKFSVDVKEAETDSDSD
Chain of RAC-gamma serine/threonine-protein kinase (Q9Y243 whole entry): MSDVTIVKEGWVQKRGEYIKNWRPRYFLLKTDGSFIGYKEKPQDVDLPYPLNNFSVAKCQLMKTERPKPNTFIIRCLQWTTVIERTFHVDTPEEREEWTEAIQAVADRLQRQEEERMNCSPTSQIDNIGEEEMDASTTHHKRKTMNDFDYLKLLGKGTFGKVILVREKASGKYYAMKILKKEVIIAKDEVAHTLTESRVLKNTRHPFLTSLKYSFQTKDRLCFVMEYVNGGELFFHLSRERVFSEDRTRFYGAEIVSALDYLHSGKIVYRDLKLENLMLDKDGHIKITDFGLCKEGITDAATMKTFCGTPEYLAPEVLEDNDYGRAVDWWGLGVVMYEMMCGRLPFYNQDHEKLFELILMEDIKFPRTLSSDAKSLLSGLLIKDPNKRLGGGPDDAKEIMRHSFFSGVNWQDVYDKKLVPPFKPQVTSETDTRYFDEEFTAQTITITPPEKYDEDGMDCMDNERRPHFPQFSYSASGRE
Chain of Insulin-like growth factor 1 receptor (P08069 31-736 limits assumed): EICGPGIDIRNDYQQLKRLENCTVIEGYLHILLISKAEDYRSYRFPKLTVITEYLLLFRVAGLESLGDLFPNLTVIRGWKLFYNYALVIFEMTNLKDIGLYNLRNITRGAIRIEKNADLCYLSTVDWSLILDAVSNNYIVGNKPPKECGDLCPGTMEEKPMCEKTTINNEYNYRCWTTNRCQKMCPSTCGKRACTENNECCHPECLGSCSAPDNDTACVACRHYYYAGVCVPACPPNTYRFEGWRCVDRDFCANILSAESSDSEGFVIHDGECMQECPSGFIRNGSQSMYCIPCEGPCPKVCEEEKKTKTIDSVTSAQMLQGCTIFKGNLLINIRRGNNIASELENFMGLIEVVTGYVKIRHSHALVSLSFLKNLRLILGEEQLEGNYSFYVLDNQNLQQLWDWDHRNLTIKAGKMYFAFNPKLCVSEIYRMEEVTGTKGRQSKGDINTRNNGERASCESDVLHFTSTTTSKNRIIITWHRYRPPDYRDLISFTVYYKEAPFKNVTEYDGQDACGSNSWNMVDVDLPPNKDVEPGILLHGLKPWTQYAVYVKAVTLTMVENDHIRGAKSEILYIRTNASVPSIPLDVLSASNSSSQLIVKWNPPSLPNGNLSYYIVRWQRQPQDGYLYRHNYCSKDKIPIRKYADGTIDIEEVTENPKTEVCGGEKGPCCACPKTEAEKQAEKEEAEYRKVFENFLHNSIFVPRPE
Chain of Insulin-like growth factor 1 receptor (P08069 741-1367 limits assumed): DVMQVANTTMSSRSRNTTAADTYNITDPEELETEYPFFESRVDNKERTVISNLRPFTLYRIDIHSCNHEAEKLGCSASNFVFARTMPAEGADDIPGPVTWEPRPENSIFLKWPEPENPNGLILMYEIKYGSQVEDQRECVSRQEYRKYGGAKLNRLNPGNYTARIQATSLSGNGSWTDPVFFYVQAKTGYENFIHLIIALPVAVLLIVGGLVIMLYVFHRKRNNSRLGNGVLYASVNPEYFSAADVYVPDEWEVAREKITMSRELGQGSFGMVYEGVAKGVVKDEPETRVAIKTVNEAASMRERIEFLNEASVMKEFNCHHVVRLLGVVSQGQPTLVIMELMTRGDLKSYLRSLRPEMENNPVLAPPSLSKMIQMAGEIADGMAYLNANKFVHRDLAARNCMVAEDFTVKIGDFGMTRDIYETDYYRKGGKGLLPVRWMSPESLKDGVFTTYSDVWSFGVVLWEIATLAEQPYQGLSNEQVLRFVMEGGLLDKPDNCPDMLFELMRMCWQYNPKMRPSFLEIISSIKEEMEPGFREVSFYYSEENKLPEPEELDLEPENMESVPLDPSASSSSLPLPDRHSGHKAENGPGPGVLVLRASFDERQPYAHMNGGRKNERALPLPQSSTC
Chain of Mitogen-activated protein kinase kinase kinase kinase 1 (Q92918 whole entry): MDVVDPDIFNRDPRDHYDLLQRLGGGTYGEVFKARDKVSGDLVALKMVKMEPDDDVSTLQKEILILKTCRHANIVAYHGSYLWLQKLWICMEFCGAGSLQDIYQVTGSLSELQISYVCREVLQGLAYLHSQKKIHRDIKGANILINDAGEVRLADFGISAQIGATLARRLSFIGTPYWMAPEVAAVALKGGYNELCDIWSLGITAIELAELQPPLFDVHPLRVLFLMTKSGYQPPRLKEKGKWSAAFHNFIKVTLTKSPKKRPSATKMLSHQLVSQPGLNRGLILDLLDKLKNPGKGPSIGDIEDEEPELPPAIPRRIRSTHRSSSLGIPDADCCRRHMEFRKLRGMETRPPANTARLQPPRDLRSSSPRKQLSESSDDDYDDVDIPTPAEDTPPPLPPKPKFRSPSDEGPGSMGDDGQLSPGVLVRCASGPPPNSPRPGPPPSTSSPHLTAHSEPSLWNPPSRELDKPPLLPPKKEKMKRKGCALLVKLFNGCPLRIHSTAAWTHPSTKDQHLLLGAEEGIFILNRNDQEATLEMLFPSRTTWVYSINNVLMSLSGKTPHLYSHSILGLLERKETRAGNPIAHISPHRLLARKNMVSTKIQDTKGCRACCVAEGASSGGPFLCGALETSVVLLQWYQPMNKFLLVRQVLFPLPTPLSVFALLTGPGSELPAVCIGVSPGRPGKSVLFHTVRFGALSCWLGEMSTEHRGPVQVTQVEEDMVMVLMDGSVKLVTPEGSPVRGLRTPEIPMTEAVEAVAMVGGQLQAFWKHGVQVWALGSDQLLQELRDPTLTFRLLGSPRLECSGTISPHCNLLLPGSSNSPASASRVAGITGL

Turning to `S=C(NCc1ccc2c(c1)OCO2)N1CCN(c2ncnc3c2oc2ccccc23)CC1` [AMUVATINIB], the Kd (at Rab-like protein 3; in experiment [1]; in experiment [2]; in experiment [3]; in experiment [4]; in experiment [5]) was > 30 µM (inactive) in each case. In addition, the Kd in experiment [6] and in experiment [7] was > 30 µM (inactive) in each case.
As for `O[C@H]1CC[C@H](Nc2ncc3nc(Nc4c(F)cc(F)cc4F)n([C@H]4CCOC4)c3n2)CC1` [TANZISERTIB], the Kd (on Rab-like protein 3; in experiment [1]; in experiment [2]; in experiment [3]; in experiment [4]; in experiment [5]) was > 30 µM (inactive) throughout. In addition, the Kd in experiment [6] and in experiment [7] was > 30 µM (inactive) in each case.
Take `COc1cccc2cc(-c3nc([C@H]4CC[C@H](C(=O)O)CC4)n4ncnc(N)c34)[nH]c12` [OSI-027]: the Kd (on Rab-like protein 3; in experiment [1]; in experiment [2]; in experiment [3]; in experiment [4]; in experiment [5]) was > 30 µM (inactive) throughout. In addition, the Kd in experiment [6] is > 30 µM (inactive). The pKd in experiment [7] was 5.48.
Take `O=c1[nH]c([C@@H]2CCCN2)nc2c1oc1ccc(Cl)cc12`: the Kd (on Rab-like protein 3; in experiment [1]; in experiment [2]; in experiment [3]; in experiment [4]; in experiment [5]) was > 30 µM (inactive) each time. Besides, the Kd in experiment [6] and in experiment [7] was > 30 µM (inactive) each time.
As to `O=C(O)c1ccc2c(c1)nc(Nc1cccc(Cl)c1)c1ccncc12` [SILMITASERTIB], the Kd (at Rab-like protein 3; in experiment [1]; in experiment [2]; in experiment [3]; in experiment [4]; in experiment [5]) was > 30 µM (inactive) in each case. The Kd in experiment [6] and in experiment [7] was > 30 µM (inactive) in each case.
For the molecule `c1cc(OCCN2CCCCC2)cc(-c2n[nH]c3ccc(-c4nc[nH]n4)cc23)c1` [CC-401], the Kd (on Rab-like protein 3; in experiment [1]; in experiment [2]; in experiment [3]; in experiment [4]; in experiment [5]) was > 30 µM (inactive) throughout. The Kd in experiment [6] and in experiment [7] was > 30 µM (inactive) each time.
As to `COc1cc2ncnc(Nc3ccc(O)cc3)c2cc1OC` [WHI-P131], the Kd (on Rab-like protein 3; in experiment [1]; in experiment [2]; in experiment [3]; in experiment [4]; in experiment [5]) was > 30 µM (inactive) in each case. The Kd in experiment [6] and in experiment [7] was > 30 µM (inactive) throughout.
As for `CNC(=O)c1ccc(Nc2ncc(C(F)(F)F)c(NCc3nccnc3N(C)S(C)(=O)=O)n2)cc1` [DEFACTINIB], the Kd at Rab-like protein 3 was > 30 µM (inactive); in experiment [1], > 30 µM (inactive); in experiment [2], > 30 µM (inactive); in experiment [3] it was > 30 µM (inactive); in experiment [4] it was > 30 µM (inactive); in experiment [5] it was 3.13 µM (active). Further, the Kd in experiment [6] and in experiment [7] was > 30 µM (inactive) in each case.
With `NC(=O)c1ccc(N(C(N)=O)c2c(F)cccc2F)nc1-c1ccc(F)cc1F` [VX-702], the Kd (at Rab-like protein 3; in experiment [1]; in experiment [2]; in experiment [3]; in experiment [4]; in experiment [5]) was > 30 µM (inactive) in each case. The Kd in experiment [6] was > 30 µM (inactive).
In the case of `CCc1nc(C(N)=O)c(Nc2ccc(N3CCC(N4CCN(C)CC4)CC3)c(OC)c2)nc1NC1CCOCC1` [GILTERITINIB], the pKd at Rab-like protein 3 is 5.32. Moreover, the dissociation constant Kd in experiment [1] was 2.84 µM (active); in experiment [2], 1.38 µM (active); in experiment [3], > 30 µM (inactive); in experiment [4], > 30 µM (inactive); in experiment [6], > 30 µM (inactive); in experiment [7], > 30 µM (inactive).
Consider `Cc1c(NC(=O)OC[C@@H]2COCCN2)cn2ncnc(Nc3ccc4c(cnn4Cc4cccc(F)c4)c3)c12` [AC-480], for which the Kd in experiment [1], in experiment [2], in experiment [3], in experiment [4], in experiment [5] and in experiment [6] was > 30 µM (inactive) each time. For the same molecule, in experiment [7], the Kd was > 30 µM (inactive).
With `Cc1cc(-c2cc(OC(=O)c3ccccc3)ccc2Cl)cc2nnc(Nc3ccc(OCCN4CCCC4)cc3)nc12` [TG100-801], the Kd at Rab-like protein 3 is > 30 µM (inactive); in experiment [1] it was > 30 µM (inactive); in experiment [3], > 30 µM (inactive); in experiment [4], > 30 µM (inactive); in experiment [6], 0.065 µM (active); in experiment [7], > 30 µM (inactive).
As for `COc1ccc(-c2ccc3ncc4c(c3c2)n(-c2ccc(N3CCNCC3)c(C(F)(F)F)c2)c(=O)n4C)cn1` [BGT-226 FREE BASE], the Kd in experiment [1], in experiment [2], in experiment [3], in experiment [4], in experiment [5] and in experiment [6] was > 30 µM (inactive) in each case. Besides, the Kd in experiment [7] was > 30 µM (inactive).

The values are drawn from ChEMBL document CHEMBL3991601, “The target landscape of clinical kinase drugs” (Science, 2017).
